# pIC50: −log10 of the molar value.
# Biological target: PIK3CG (human) (UniProt P48736)
# Assay: Inhibition of PIK3CG Kinase Activity
# Chain of PIK3CG (human) (P48736 whole entry, looked up): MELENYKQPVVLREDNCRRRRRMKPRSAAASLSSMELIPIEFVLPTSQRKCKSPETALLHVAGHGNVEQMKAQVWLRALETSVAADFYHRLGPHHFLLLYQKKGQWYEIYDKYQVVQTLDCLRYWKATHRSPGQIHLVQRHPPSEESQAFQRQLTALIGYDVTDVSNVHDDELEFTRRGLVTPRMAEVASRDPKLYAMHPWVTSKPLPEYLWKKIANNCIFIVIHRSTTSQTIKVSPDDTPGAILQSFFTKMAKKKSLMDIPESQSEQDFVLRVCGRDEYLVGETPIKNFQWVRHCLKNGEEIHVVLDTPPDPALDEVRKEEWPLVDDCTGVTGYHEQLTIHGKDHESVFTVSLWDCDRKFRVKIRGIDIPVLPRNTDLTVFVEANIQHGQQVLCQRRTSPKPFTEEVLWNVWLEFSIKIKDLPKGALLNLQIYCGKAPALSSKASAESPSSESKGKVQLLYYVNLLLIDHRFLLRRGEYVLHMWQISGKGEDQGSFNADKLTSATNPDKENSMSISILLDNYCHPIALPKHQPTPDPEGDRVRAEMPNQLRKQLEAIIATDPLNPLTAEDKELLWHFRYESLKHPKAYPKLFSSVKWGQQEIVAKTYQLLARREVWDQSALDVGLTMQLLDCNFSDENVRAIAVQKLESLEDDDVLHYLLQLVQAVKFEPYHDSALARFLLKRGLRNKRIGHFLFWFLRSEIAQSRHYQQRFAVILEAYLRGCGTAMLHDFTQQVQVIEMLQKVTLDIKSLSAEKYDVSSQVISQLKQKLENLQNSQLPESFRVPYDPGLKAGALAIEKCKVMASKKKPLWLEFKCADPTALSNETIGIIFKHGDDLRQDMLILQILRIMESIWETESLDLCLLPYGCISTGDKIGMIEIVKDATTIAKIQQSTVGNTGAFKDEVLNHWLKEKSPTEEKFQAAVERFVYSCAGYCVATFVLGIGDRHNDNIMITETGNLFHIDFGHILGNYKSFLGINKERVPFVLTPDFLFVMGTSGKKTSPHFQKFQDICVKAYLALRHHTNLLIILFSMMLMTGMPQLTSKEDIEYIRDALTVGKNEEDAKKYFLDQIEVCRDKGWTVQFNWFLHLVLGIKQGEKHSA
row,Compound,pIC50
1,Cn1nc(-c2cccc(C#N)c2)c2cnc(N)nc21,> 5.70
2,Cn1nc(-c2cc(Br)c(O)c(Br)c2)c2cnc(N)nc21,> 5.70
3,Cc1ccc(-c2nn(C)c3nc(N)ncc23)cc1[N+](=O)[O-],> 5.70
4,COc1cc(-c2nn(C)c3nc(N)ncc23)cc(Cl)c1O,> 5.70
5,COc1ccc(-c2nn(C)c3nc(N)ncc23)c(OC)c1,> 5.70
6,COc1ccc(C(=O)O)cc1-c1nn(C)c2nc(N)ncc12,> 5.70
7,COc1cc(OC)c(S(=O)(=O)NC(C)C)cc1-c1nn(C)c2nc(N)ncc12,> 5.70
8,COc1ccc(-c2nn(C)c3nc(N)ncc23)cc1,> 5.70
9,Cn1nc(-c2cc(F)c(O)c(Br)c2)c2cnc(N)nc21,> 5.70
10,Cc1noc(C)c1-c1nn(C)c2nc(N)ncc12,> 5.70
11,Cn1nc(-c2cnc(N)c(C(F)(F)F)c2)c2cnc(N)nc21,> 5.70
12,Cn1nc(-c2cc(C=O)ccc2O)c2cnc(N)nc21,> 5.70
13,CN1CCN(CCCOc2ccc(-c3nn(C)c4nc(N)ncc34)cc2F)CC1,> 5.70
14,Cn1nc(-c2cccc(NS(C)(=O)=O)c2)c2cnc(N)nc21,> 5.70
15,Cn1nc(-c2ccc(O)cc2O)c2cnc(N)nc21,> 5.70
16,COc1ccc(C(=O)NC(C)C)cc1-c1nn(C)c2nc(N)ncc12,> 5.70
17,Cn1nc(-c2ccc(F)c(F)c2)c2cnc(N)nc21,> 5.70
18,Cn1nc(-c2ccc(OCCCN3CCOCC3)c(F)c2)c2cnc(N)nc21,> 5.70
19,COc1c(F)cc(-c2nn(C)c3nc(N)ncc23)cc1NC(C)=O,> 5.70
20,Cn1nc(-c2ccc3c(c2)OCCO3)c2cnc(N)nc21,> 5.70
21,COCCOc1ccc(-c2nn(C)c3nc(N)ncc23)cc1F,> 5.70
22,Cn1nc(-c2cc(F)c(C=O)c(F)c2)c2cnc(N)nc21,> 5.70
23,Cn1nc(-c2ccncc2)c2cnc(N)nc21,> 5.70
24,Cn1nc(-c2ccc(OCC#N)c(F)c2)c2cnc(N)nc21,> 5.70
25,COCCOc1c(F)cc(-c2nn(C)c3nc(N)ncc23)cc1Br,> 5.70
26,Cn1nc(-c2ccc(F)c(F)c2F)c2cnc(N)nc21,> 5.70

row,Compound,pIC50
1,Cn1nc(-c2cccnc2)c2cnc(N)nc21,> 5.70
2,CC(C)Cc1ccc(-c2nn(C)c3nc(N)ncc23)cc1,> 5.70
3,Cn1nc(-c2ccc(F)c(Cl)c2)c2cnc(N)nc21,> 5.70
4,Cn1nc(-c2cc(F)cc(OCC(=O)O)c2)c2cnc(N)nc21,> 5.70
5,COc1c(F)cc(-c2nn(C)c3nc(N)ncc23)cc1F,> 5.70
6,Cn1nc(-c2cc(F)c(OCCO)c(Br)c2)c2cnc(N)nc21,> 5.70
7,Cn1nc(-c2ccc(OCCO)c(F)c2)c2cnc(N)nc21,> 5.70
8,COc1cccc(OC)c1-c1nn(C)c2nc(N)ncc12,> 5.70
9,Cn1nc(-c2ccc(N)c(F)c2)c2cnc(N)nc21,> 5.70
10,CCCOc1cc(F)ccc1-c1nn(C)c2nc(N)ncc12,> 5.70
11,Cn1nc(-c2cc(F)c(C#N)c(F)c2)c2cnc(N)nc21,> 5.70
12,CCN(CC)S(=O)(=O)c1cc(-c2nn(C)c3nc(N)ncc23)ccc1O,> 5.70
13,COc1ncc(-c2nn(C)c3nc(N)ncc23)cc1F,> 5.70
14,CC(C)Oc1ccc(-c2nn(C)c3nc(N)ncc23)cc1Cl,> 5.70
15,Cn1nc(-c2cc(Cl)c(O)c(Br)c2O)c2cnc(N)nc21,> 5.70
16,COc1ncc(-c2nn(C)c3nc(N)ncc23)c(OC)n1,> 5.70
17,Cn1nc(-c2cccc3cccnc23)c2cnc(N)nc21,> 5.70
18,Cn1nc(-c2cc(Cl)c(OC(F)(F)F)c(Br)c2O)c2cnc(N)nc21,> 5.70
19,CCOc1ccc(-c2nn(C)c3nc(N)ncc23)cc1F,> 5.70
20,Cn1nc(-c2ccco2)c2cnc(N)nc21,> 5.70
21,Cn1nc(-c2ccc(OCCn3ccnc3)c(F)c2)c2cnc(N)nc21,> 5.70
22,Cn1nc(-c2cc(F)cc(F)c2)c2cnc(N)nc21,> 5.70
23,COc1c(F)cc(F)cc1-c1nn(C)c2nc(N)ncc12,> 5.70
24,Cn1nc(-c2cc(Cl)c(O)c(C(F)(F)F)c2)c2cnc(N)nc21,> 5.70
25,COc1cc(OC(F)(F)F)ccc1-c1nn(C)c2nc(N)ncc12,> 5.70
26,COc1ccc(Cl)cc1-c1nn(C)c2nc(N)ncc12,> 5.70

row,Compound,pIC50
1,CC(C)NC(=O)c1cccc(-c2nn(C)c3nc(N)ncc23)c1,> 5.70
2,Cn1nc(-c2cc(F)c(O)c(F)c2)c2cnc(N)nc21,> 5.70
3,Cn1nc(-c2cccc(F)c2O)c2cnc(N)nc21,> 5.70
4,Cn1nc(-c2cccc(C(F)(F)F)c2)c2cnc(N)nc21,> 5.70
5,Cn1nc(-c2ccc(O)cc2)c2cnc(N)nc21,> 5.70
6,COc1cc(OC)c(-c2nn(C)c3nc(N)ncc23)cc1Cl,> 5.70
7,Cn1nc(-c2cc(F)c(F)c(F)c2)c2cnc(N)nc21,> 5.70
8,COc1ccc(OC)c(-c2nn(C)c3nc(N)ncc23)c1,> 5.70
9,Cn1nc(-c2ccc(OCCN3CCOCC3)c(F)c2)c2cnc(N)nc21,> 5.70
10,COc1ccc(Br)cc1-c1nn(C)c2nc(N)ncc12,> 5.70
11,Cn1nc(-c2ccc(Cl)c(Cl)c2)c2cnc(N)nc21,> 5.70
12,Cn1nc(-c2ccc(O)c(F)c2)c2cnc(N)nc21,> 5.70
13,CNc1ncc2c(-c3ccc(OC)c(F)c3)nn(C)c2n1,> 5.70
14,Cn1nc(-c2ccc(C#N)cc2)c2cnc(N)nc21,> 5.70
15,COc1cc(-c2nn(C)c3nc(N)ncc23)ccn1,> 5.70
16,COc1ccc(-c2nn(C)c3nc(N)ncc23)cc1Cl,> 5.70
17,CNS(=O)(=O)c1cc(-c2nn(C)c3nc(N)ncc23)c(OC)cc1OC,> 5.70
18,COc1cc(-c2nn(C)c3nc(N)ncc23)cc(OC)c1OC,> 5.70
19,COc1cc(OC(F)(F)F)c(Cl)cc1-c1nn(C)c2nc(N)ncc12,> 5.70
20,Cn1nc(-c2ccc(OCCCO)c(F)c2)c2cnc(N)nc21,> 5.70
21,Cn1nc(-c2ccc(NS(C)(=O)=O)c(F)c2)c2cnc(N)nc21,> 5.70
22,Cn1nc(-c2cc(C(F)(F)F)cc(Cl)c2O)c2cnc(N)nc21,> 5.70
23,COc1ncc(-c2nn(C)c3nc(N)ncc23)cn1,> 5.70
24,Cn1nc(-c2cc(C(F)(F)F)ccc2O)c2cnc(N)nc21,> 5.70
25,Cn1nc(-c2ccc(OCCN3CCCC3)c(F)c2)c2cnc(N)nc21,> 5.70
26,COc1ccc(C=O)cc1-c1nn(C)c2nc(N)ncc12,> 5.70

row,Compound,pIC50
1,Cn1nc(-c2ccc(Cl)s2)c2cnc(N)nc21,> 5.70
2,Cn1nc(-c2cncc(C(F)(F)F)c2)c2cnc(N)nc21,> 5.70
3,CC(=O)c1ccc(-c2nn(C)c3nc(N)ncc23)cc1,> 5.70
4,CC(=O)c1cccc(-c2nn(C)c3nc(N)ncc23)c1F,> 5.70
5,COc1ccc(F)cc1-c1nn(C)c2nc(N)ncc12,> 5.70
6,Cn1nc(-c2ccc(OCc3ccccc3)c(F)c2)c2cnc(N)nc21,> 5.70
7,COc1ccc(-c2nn(C)c3nc(N)ncc23)cc1F,> 5.70
8,Cn1nc(-c2cc(Cl)c(O)c(Cl)c2)c2cnc(N)nc21,> 5.70
9,Cn1nc(-c2cc(F)c3[nH]ccc3c2)c2cnc(N)nc21,> 5.70
10,Cn1nc(-c2cc(F)ccc2OCCO)c2cnc(N)nc21,> 5.70
11,Cn1nc(-c2cccc(C=O)c2)c2cnc(N)nc21,> 5.70
12,COc1ccc(-c2nn(C)c3nc(N)ncc23)cn1,> 5.70
13,Cn1nc(-c2cc(Cl)c(O)cc2O)c2cnc(N)nc21,> 5.70
14,Cn1nc(-c2cc(F)ccc2O)c2cnc(N)nc21,> 5.70
15,Cn1nc(-c2cc(Cl)ccc2O)c2cnc(N)nc21,> 5.70
16,Cc1[nH]c2ccc(-c3nn(C)c4nc(N)ncc34)cc2c1C,> 5.70
17,Cn1nc(-c2cccc(Br)c2OCc2ccccc2F)c2cnc(N)nc21,> 5.70
18,Cn1nc(-c2cc(F)c(C(=O)O)c(F)c2)c2cnc(N)nc21,> 5.70
19,Cn1nc(-c2ccc3c(c2)OCO3)c2cnc(N)nc21,> 5.70
20,COc1ccc(-c2nn(C)c3nc(N)ncc23)cc1Br,> 5.70
21,COc1ccc(C(F)(F)F)cc1-c1nn(C)c2nc(N)ncc12,> 5.70
22,Cn1nc(-c2ccc(OC(F)(F)F)cc2O)c2cnc(N)nc21,> 5.70
23,Cc1cccc(-c2nn(C)c3nc(N)ncc23)c1,> 5.70
24,Cn1nc(-c2cc(O)cc(F)c2)c2cnc(N)nc21,> 5.70
25,CC(=O)c1ccc(-c2nn(C)c3nc(N)ncc23)s1,> 5.70
26,Cn1nc(-c2cccc(F)c2)c2cnc(N)nc21,> 5.70

row,Compound,pIC50
1,Cn1nc(-c2cc(Cl)cc(Br)c2O)c2cnc(N)nc21,> 5.70
2,Cn1nc(-c2cnc(N3CCNCC3)nc2)c2cnc(N)nc21,> 5.70
3,CC(C)Oc1ccc(-c2nn(C)c3nc(N)ncc23)cc1F,> 5.70
4,COc1ccc(-c2nn(C)c3nc(N)nc(NCc4ccccc4)c23)cc1F,> 5.70
5,Cn1nc(-c2ccc3cc[nH]c3c2)c2cnc(N)nc21,> 5.70
6,Cn1nc(-c2ccc(O)c(C(F)(F)F)c2)c2cnc(N)nc21,> 5.70
7,Cn1nc(-c2cncc(S(C)(=O)=O)c2)c2cnc(N)nc21,> 5.70
8,Cn1nc(-c2cc(F)c(O)c(C=O)c2)c2cnc(N)nc21,> 5.70
9,CN(C)C(=O)c1cc(-c2nn(C)c3nc(N)ncc23)cc(F)c1OCc1ccccc1,> 5.70
10,CC(C)CNC(=O)c1cccc(-c2nn(C)c3nc(N)ncc23)c1,> 5.70
11,Cn1nc(-c2cc(F)c(O)c(C#N)c2)c2cnc(N)nc21,> 5.70
12,COc1cc(OC)c(S(=O)(=O)O)cc1-c1nn(C)c2nc(N)ncc12,> 5.70
13,Cn1nc(-c2cc(Cl)c(O)c(Cl)c2)c2c(NCCN3CCOCC3)nc(N)nc21,> 5.70
14,Cn1nc(-c2cc(F)cc(Br)c2)c2cnc(N)nc21,> 5.70
15,Cn1nc(-c2cccc(O)c2)c2cnc(N)nc21,> 5.70
16,CNS(=O)(=O)c1cc(-c2nn(C)c3nc(N)ncc23)ccc1Cl,> 5.70
17,COc1c(Cl)cc(C(F)(F)F)cc1-c1nn(C)c2nc(N)ncc12,> 5.70
18,Cn1nc(-c2ccnc(Cl)c2)c2cnc(N)nc21,> 5.70
19,CNC(=O)c1cccc(-c2nn(C)c3nc(N)ncc23)c1,> 5.70
20,Cn1nc(-c2ccc(Cl)c(NS(C)(=O)=O)c2)c2cnc(N)nc21,> 5.70
21,COc1ccc(CO)cc1-c1nn(C)c2nc(N)ncc12,> 5.70
22,COc1cc(F)ccc1-c1nn(C)c2nc(N)ncc12,> 5.70
23,COc1ccc(NCCCN(C)C)cc1-c1nn(C)c2nc(N)ncc12,> 5.70

# — the Kinase Knowledgebase extract (Sharma et al. 2016)
